From patent US8455523B2, “Compositions and methods for treating hyperlipidemias” (The Research Foundation of State University of New York, priority 2010, dated 2013) come the findings set out here.

Series [1] deals with C57Bl/6J mice fed western diet. As to the kind of experiment: MTP inhibitor CP-346086 with or without lovastatin or WY14643 in western diet fed mice: plasma/hepatic lipids, AST/ALT. The settings on record: WD 8 weeks. The format is in vivo. As for the experimental part:
FIGS. 4a and 4b. Effect of MTP inhibitor (CP-34086) on plasma lipids and lipoproteins in C57Bl/6J mice fed western diet ad libitum for 8 weeks. MTP inhibitor solubilzed in DMSO was administered orally for one week (15 mg/kg/day) along with either DMSO (MTPi), lovastatin (50 mg/kg/day), or WY14643 (10 mg/kg/day). Control mice were gavaged with DMSO only.
FIGS. 5a and 5b. Liver samples from FIG. 4 were used to measure MTP activity (A) and hepatic lipids (B-E). Stars on MPTi group represent comparison between Control and MTPi groups.
Control group (n=4) received daily oral gavage of DMSO alone. MTPi group received 15 mg/kg/day MTP inhibitor CP-346086 (MTPi) once daily. […] Plasma total and HDL cholesterol were unaffected by MTPi. Combined treatment of MTPi and lovastatin decreased plasma LDL cholesterol. […] Next, we measured changes in plasma hepatic enzymes (FIGS. 4G-H). […] These studies indicate that apart from lowering plasma triglyceride, MTPi enhances plasma AST/ALT and these increases can be avoided by the co-administration of lovastatin.

In a further series the target is T1, MTP (Mus musculus, UniProt O08601).
T1 construct: small pieces (0.1 g) of liver and ˜1-cm segments of proximal small intestine were homogenized; from tissue; host or cells: mouse liver (C57BL/6J; Reversa mice in some experiments); supernatant of ultracentrifuged homogenate
T1 sequence (O08601 22-894): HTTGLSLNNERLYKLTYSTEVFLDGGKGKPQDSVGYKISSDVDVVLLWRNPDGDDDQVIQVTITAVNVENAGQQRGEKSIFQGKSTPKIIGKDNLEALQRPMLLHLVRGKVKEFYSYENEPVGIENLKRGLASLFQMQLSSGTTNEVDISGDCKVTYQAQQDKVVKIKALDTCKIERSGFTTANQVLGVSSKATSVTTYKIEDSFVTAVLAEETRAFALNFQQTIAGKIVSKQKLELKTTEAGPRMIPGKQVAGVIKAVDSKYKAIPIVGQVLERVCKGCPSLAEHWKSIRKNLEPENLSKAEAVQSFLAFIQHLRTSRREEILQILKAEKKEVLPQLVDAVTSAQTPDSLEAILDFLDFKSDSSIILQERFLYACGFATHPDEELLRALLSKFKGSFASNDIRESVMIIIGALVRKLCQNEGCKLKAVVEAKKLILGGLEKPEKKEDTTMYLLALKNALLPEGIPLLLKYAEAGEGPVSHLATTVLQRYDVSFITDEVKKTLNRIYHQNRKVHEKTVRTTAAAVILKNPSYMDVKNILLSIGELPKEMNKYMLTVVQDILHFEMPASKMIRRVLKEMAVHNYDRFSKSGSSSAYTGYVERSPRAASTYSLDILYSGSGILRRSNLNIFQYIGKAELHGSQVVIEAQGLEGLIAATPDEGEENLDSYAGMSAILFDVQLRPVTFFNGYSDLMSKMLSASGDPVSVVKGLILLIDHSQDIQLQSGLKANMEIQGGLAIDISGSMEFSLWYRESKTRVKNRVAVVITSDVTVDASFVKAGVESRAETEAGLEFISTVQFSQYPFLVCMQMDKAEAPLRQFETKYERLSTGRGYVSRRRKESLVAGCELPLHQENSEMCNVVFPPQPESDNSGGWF
T1 sequence (P09103 21-509 partner limits assumed): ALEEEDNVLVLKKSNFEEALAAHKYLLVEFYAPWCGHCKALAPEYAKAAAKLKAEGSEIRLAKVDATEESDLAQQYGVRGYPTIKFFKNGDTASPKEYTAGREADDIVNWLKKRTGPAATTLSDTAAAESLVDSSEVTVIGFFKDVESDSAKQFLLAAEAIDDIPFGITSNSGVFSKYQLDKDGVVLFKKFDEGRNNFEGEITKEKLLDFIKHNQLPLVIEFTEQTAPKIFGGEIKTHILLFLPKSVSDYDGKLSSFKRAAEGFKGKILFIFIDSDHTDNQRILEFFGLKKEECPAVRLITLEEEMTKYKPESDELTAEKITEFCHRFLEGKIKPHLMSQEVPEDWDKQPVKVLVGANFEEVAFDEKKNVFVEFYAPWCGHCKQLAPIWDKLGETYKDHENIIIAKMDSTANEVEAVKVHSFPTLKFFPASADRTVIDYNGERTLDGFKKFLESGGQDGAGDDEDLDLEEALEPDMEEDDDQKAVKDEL
As to the kind of experiment: Determination of MTP activity in tissues (liver homogenates of treated mice). It is filed as in vivo. The settings on record: Reversa mice, plpC vs PBS. As for the experimental part: After extensive washes with ice-cold PBS, small pieces (0.1 g) of liver and ˜1-cm segments of proximal small intestine were homogenized with 1 ml of ice-cold 1 mM Tris-HCl, pH 7.6, 1 mM EGTA, and 1 mM MgCl2 buffer in a glass homogenizer. The homogenates were centrifuged (SW55 Ti rotor, 50,000 rpm, 10° C., 1 h), and supernatants were used for MTP assay as described before (41; 42) using a kit (Chylos, Inc.).

The next series has as its system Reversa mice. As for the experimental part: FIG. 11. Reversa animals were injected with plpC every other day for one week. Lovastatin, T-090317 and WY14643 were administered by oral gavage everyday for 30 days after the first injection. Animals were sacrificed on day 30 and plasma and livers were harvested and analyzed. * represent comparison to PBS injected animals and # represent comparisons to plpC control.
Animals: Mttp^tm2Sgy LdIr^tm1Her Apob^tm2Sgy Tg(Mx1-cre)1Cgn/J mice (Reversa) (stock number 004192) were obtained from Jackson Laboratories. Male reversa mice were used to study the effect of mttp gene deletion on plasma and tissue lipids. These animals are transgenic for apolipoprotein B, LDLR^−/− and floxed at exon 1 of the mttp locus. In addition, these mice express cre recombinase under the control of the Mx1 promoter, which is induced after intraperitoneal injection of polyinosinic polycytidylic ribonucleic acid (plpC—Sigma) in the liver, spleen and intestine. Injection of plpC activates the cre recombinase and deletes the mttp gene in the liver and intestines. Reversa mice were injected with either PBS or plpC. Mice injected with plpC were orally gavaged with DMSO (Sigma-Aldrich D8418), DMSO+Lovastatin (50 mg/kg/day) (Calbiochem 438186), DMSO+T0901317 (50 mg/kg/day) (Calbiochem 575310), or DMSO+WY14643 (10 mg/kg/day) (Calbiochem 681725). Mice injected with plpC were also injected with either PBS or Ω-3 fatty acids (SUNY Downstate Medical Center). All animals were given supplemental treatments for 30 days.
All animals were kept in 07:00-19:00 h lighting schedule. […] Food was withdrawn 16 h before the sacrifice of the mice. On the day of the experiment, mice were anesthetized and blood was collected from the heart. Liver was collected, washed in ice-cold PBS, cut into small pieces and used for lipid extraction, histological staining, to measure different protein activities/quantities and for mRNA analysis. Lipids were extracted from the tissue homogenates following the Bligh and Dyer method. Triglyceride (Infinity TM Triglyceride, TR22421) and total cholesterol (Infinity TM Cholesterol, TR13421) levels in the tissues were determined using commercial kits (Thermo Scientific). Free cholesterol and free fatty acid levels were measured using kits from Wako Chemicals (Germany). Esterified cholesterol was calculated by subtracting the free cholesterol from the total cholesterol.
To determine whether accumulation of hepatic triglyceride and free cholesterol is related to increases in plasma AST/ALT, we sought to reduce these lipids using different chemical compounds of known physiologic effects. Mice injected with plpC were orally gavaged with DMSO, DMSO+Lovastatin (50 mg/kg/day), DMSO+T0901317 (50 mg/kg/day), or DMSO+WY14643 (10 mg/kg/day). Lovastatin (Lova), an HMG-CoA reductase (HMGR) inhibitor, and T0901317 (T0), an LXR agonist, are expected to decrease hepatic free cholesterol by inhibiting endogenous cholesterol synthesis and increasing cholesterol efflux, respectively. WY14643 (WY), a PPARα agonist, increases β-oxidation of fatty acids and lowers hepatic triglycerides.
To evaluate the efficacy of Ω-3 FA in reducing hepatic triglyceride, plpC injected mice were treated with intraperitoneal injection of Ω-3 FA (3 mg/kg/2 day) or Ω-3 FA and Lova.

Where [2] appears, read: CP-346086 15 mg/kg/day oral 1 week, vs control.
The mark [3] stands for this setting: MTP deficient (plpC) Reversa mice, oral 30 days.
Where [4] appears, read: plpC-injected Reversa mice, Lova 50, T0 50, WY 10 mg/kg/day oral or Ω-3 FA 3 mg/kg/2 day ip, vs plpC control.

Turning to `O=C(Nc1ccc2c(c1)CCN(Cc1ncn[nH]1)C2)c1ccccc1-c1ccc(C(F)(F)F)cc1` [CP-346086], the “plasma AST/ALT” value in series [1] (CP-346086 15 mg/kg/day 1 week ± lovastatin 50 or WY14643 10 mg/kg/day, MTPi vs control, co-drugs vs MTPi) was “significantly enhanced”. In series [1] (setting [2]), the “Plasma total and HDL cholesterol” value was “unaffected”; the “plasma total and LDL triglyceride, and LDL cholesterol” value is reported as “significantly lower”.
Consider “polyinosinic polycytidylic ribonucleic acid [plpC]”, for which the “reduction of hepatic MTP activity compared to controls” value on MTP was around 75%. Besides, in the series on Reversa mice (Reversa mice, plpC vs PBS), the “decrease in non-HDL-cholesterol” value is around 40%; the “decrease of plasma total triglyceride and cholesterol” value is 50%; the “increase of hepatic free cholesterol” value worked out at 50%; the “increase of hepatic triglyceride” value was determined as 2 fold. Moreover, in the series with Reversa mice (Reversa mice, plpC vs PBS), the “increase of plasma ALT and AST” value is 2-3 fold; the “reduction of hepatic cholesteryl esters (CE)” value is recorded as around 30%.
With `O=S(=O)(c1ccccc1)N(CC(F)(F)F)c1ccc(C(O)(C(F)(F)F)C(F)(F)F)cc1` [T0901317], in the series with Reversa mice (setting [3]), the plasma cholesterol entry is listed as “no effect” and the plasma triglycerides result is “no effect”. Also, in the series with Reversa mice (setting [4]), the “hepatic free and total cholesterol” value is “significantly reduced”; the hepatic triglyceride result was “no effect”.
